In patent publication US5563169A, “Tricyclic heterocyclic compound” (Sankyo Company, Limited, priority 1991, dated 1996) one finds ACAT inhibiting activity data, which are given here for nine compounds.

The subject of this test is acyl-CoA: cholesterol acyltransferase (ACAT). The test can be described thus: ACAT inhibiting effect in vitro (rat liver microsome, method of Ross et al.). Format: biochemical. Particulars: rat liver microsome (Sprague-Dawley) enzyme fraction, 100 μM [14C]oleoyl-CoA, 37° C., 4 minutes; stated in words only. As for the experimental part:
ACAT inhibiting activities were determined according to the improved test method in vitro reported by Ross et al. [A. C. Ross etal., J. Biol. Chem., 259, 815-819(1984)].
According to the procedure described in A. C. Ross et al., J. Biol. Chem., 257, 2453-2459(1982), rat liver microsome was prepared from a rat of Sprague-Dawley strain fasted overnight to make an enzyme fraction. To a 0.15M potassium phosphate buffer solution (pH 7.4) containing 100 μM of [14C]oleoyl-CoA, 2 mM of dithiothreitol and 80 μM of bovine serum albumin were added 60-100 μg of the microsome fraction, and a 5 μl solution of a test compound in dimethylsulfoxide (2.5% v/v) was added to the above phosphate buffer solution to make 200 μl. The mixture was warmed at 37° C. for 4 minutes and then the enzyme reaction was stopped by adding 1 ml of ethanol under stirring. To the reaction mixture were added 2 ml of hexane. After stirring, 1 ml of a hexane solution was taken out and the solvent was evaporated in a stream of nitrogen. Cholesteryl oleate resulted from the enzyme reaction was separated by thin layer chromatography through silica gel using a 85:15:1 mixture of hexane, diethyl ether and acetic acid as a developing solvent. An ACAT activity was determined by measuring radioactivity and a inhibiting rate (%) was calculated by comparing a control activity with that of the test compound at given concentrations.
As to `CC(C)c1cccc(C(C)C)c1NC(=O)CC1c2ccccc2Oc2ccccc21` [Example 1, N-[2,6-Bis (1-methylethyl)phenyl]-2-(9H-xanthen-9-yl)acetamide], the ACAT inhibiting activity entry is listed as “excellent inhibiting activity”.
With `CCc1cccc(CC)c1NC(=O)CC1c2ccccc2Oc2ccccc21` [Example 2, N-(2,6-Diethylphenyl)-2-(9H-xanthen-9-yl)acetamide], the ACAT inhibiting activity entry is “excellent inhibiting activity”.
As for `CCc1cccc(CSC)c1NC(=O)CC1c2ccccc2Oc2ccccc21` [Example 3, N-(2-Ethyl-6-methylthiomethylphenyl)-2-(9H-xanthen-9-yl)acetamide], the ACAT inhibiting activity entry is “excellent inhibiting activity”.
With `CCc1cccc(SC)c1NC(=O)CC1c2ccccc2Oc2ccccc21` [Example 9, N-(2-Ethyl-6-methylthiophenyl)-2-(9H-xanthen-9-yl)acetamide] the entry was “excellent inhibiting activity”.
In the case of `CCc1cccc(SC(C)C)c1NC(=O)CC1c2ccccc2Oc2ccccc21` [Example 10, N-(2-Ethyl-6-isopropylthiophenyl)-2-(9H-xanthen-9-yl)acetamide] it was “excellent inhibiting activity”.
In the case of `CCc1cccc(Sc2ccccc2)c1NC(=O)CC1c2ccccc2Oc2ccccc21` [Example 11, N-(2- Ethyl-6-phenylthiophenyl)-2-(9H-xanthen-9-yl)acetamide] it was “excellent inhibiting activity”; in that of `CC(C)c1cccc(C(C)C)c1NC(=O)C(C)C1c2ccccc2Oc2ccccc21` (stereo not drawn) [Example 16, N-[2,6-Bis(1-methylethyl)phenyl]-2-(9H-xanthen-9-yl)propanamide], “excellent inhibiting activity”.
For the compound `CC(C)c1cccc(C(C)C)c1NC(=O)CC1(C)c2ccccc2Oc2ccccc21` [Example 18-B, N-[2,6-bis(1-methylethyl)phenyl]-2-(9-methyl-9H-xanthen-9-yl)acetamide], the ACAT inhibiting activity result is “excellent inhibiting activity”.
As to `CCc1cccc(OC(C)C)c1NC(=O)CC1c2ccccc2Oc2ccccc21` [Example 25, N-(2-Ethyl-6-isopropoxyphenyl)-2-(9H-xanthen-9-yl)acetamide], the ACAT inhibiting activity entry is on record as “excellent inhibiting activity”.
